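Results reflect a 48-hour exposure of cells in 96-well plates to compound at five concentrations. Definition used: TGI = concentration required for complete inhibition of growth.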
What was measured:
Assay in all cases: inhibition of tumour cell growth, NCI panel, 48 h
[1] = test system: BT-549 breast
[2] = test system: HL-60(TB) leukemia
[3] = test system: HT29 colon
[4] = test system: K-562 leukemia
[5] = test system: MCF7 breast
[6] = test system: MOLT-4 leukemia
[7] = test system: OVCAR-3 ovarian
[8] = test system: SF-268 CNS
[9] = test system: SR leukemia
[10] = test system: SW-620 colon
[11] = test system: UO-31 renal

SMILES | TGI [1] [µM] | TGI [2] [µM] | TGI [3] [µM] | TGI [4] [µM] | TGI [5] [µM] | TGI [6] [µM] | TGI [7] [µM] | TGI [8] [µM] | TGI [9] [µM] | TGI [10] [µM] | TGI [11] [µM]
CC(=O)O[C@H]1CC[C@@]2(C)C(=CC[C@@H]3[C@@H]2CC[C@]2(C)C(=N/O)/C(=C\c4ccccc4)C[C@@H]32)C1 | > 100 | 49.3 | > 100 | > 100 | > 100 | > 28.5 | 54.7 | > 80.8 | > 42.3 | > 60.9 | > 59.2
CC(C)(C)OC(=O)N/C(C=O)=C\C1CCCCC1 | 70.6 | 65.4 | 71.6 | 46.2 | 72.8 | 52 | 73.1 | 52.3 | 42.8 | > 100 | 30.2
Cc1ccc(S(=O)(=O)NC(CCC(=O)NNc2ccccc2)C(=O)NNc2ccccc2)cc1 (configuration not stated) | > 100 | > 100 | > 100 | > 100 | > 100 | > 100 | > 100 | > 100 | > 100 | > 100 | > 100
CC(C)(C)OC(=O)NC12C3C4C1C1C2C3C41NC(=O)OC(C)(C)C (configuration not stated) | > 100 | 53.9 | > 100 | > 100 | 95.9 | 40.4 | > 100 | > 100 | > 100 | > 100 | > 100
NC(Cc1ccc(OCc2ccccc2)cc1)C(=O)NC(Cc1ccccc1)C(=O)Oc1c(Cl)c(Cl)c(Cl)c(Cl)c1Cl (configuration not stated) | 32.7 | > 100 | 32.1 | > 100 | 36 | > 100 | 28.9 | 38.9 | > 100 | 31.7 | 30.4
COc1cc(/C=C2\CC/C(=C\c3cc(OC)c(O)c(OC)c3)C2=O)cc(OC)c1O | 7.44 | 8.62 | > 100 | 14.2 | > 26.7 | 8 | > 21.8 | 36.5 | > 100 | > 100 | > 26.7
O=C1NC(=O)c2ccccc2/C1=C/c1ccc2c(c1)OCO2 | 50.8 | > 100 | 44.8 |  | > 100 | > 100 | 25 | 82.1 | > 100 | > 100 | 32.4
CSC(=S)Nc1cc(C)cc(C)n1 | > 100 | > 31.6 | > 31.6 | > 31.6 | > 31.6 | > 31.6 | > 31.6 | > 31.6 | > 10 | > 31.6 | > 31.6
Cc1cn(C2CCC(CO)(CF)O2)c(=O)[nH]c1=O (configuration not stated) | > 100 | > 100 | > 100 | > 100 | > 100 | > 100 | > 100 | > 100 | > 100 | > 100 | > 100
COc1cc2cc(C(=O)N3CC(COS(C)(=O)=O)c4ccc(NC(=O)OCc5ccccc5)cc43)[nH]c2c(OC)c1OC (configuration not stated) | > 100 | > 100 | > 100 | > 100 | > 100 | > 100 | > 100 | > 100 | > 100 | > 100 | > 100
Nc1ccc(-c2nc3ccccc3s2)cc1Cl | > 100 | > 100 | > 100 | > 100 | > 100 | > 100 | > 100 | > 100 | > 100 | > 100 | > 100
O[C@@H]1C=C[C@]23CCN(Cc4cc5c(cc42)OCO5)[C@@H]3C1 | > 100 | > 100 | > 100 | > 100 | > 100 | > 100 | > 100 | > 100 | > 100 | > 100 | > 100
COc1ccc(C#Cn2nnc3ccccc32)cc1 | > 100 | 60.6 | > 100 | > 100 | > 100 | > 100 | > 100 | > 100 | > 100 | > 100 | 4.47
CC[C@@]1(O)C(=O)OCc2c1cc1n(c2=O)Cc2c-1nc1ccc(O)cc1c2[Si](C)(C)C(C)(C)C | 1.17 | < 0.01 | 4.39 | > 94.5 | > 41.2 | 0.106 | 0.0752 | 0.804 | < 0.0112 | 10.9 | 0.0357
CC(C)(C)OC(=O)[C@@H]1CCC(=O)N1C1(c2ccccc2)c2ccccc2-c2ccccc21 | > 100 | 61.8 | 90.1 | > 100 | > 100 | 51.5 | > 100 | > 100 | 62.3 | 87.1 | > 100
Fc1cccc(F)c1C1SCc2nc3cc(Cl)c(Cl)cc3n21 (configuration not stated) | > 100 | > 100 | > 100 | > 100 | > 100 | > 100 | > 100 | > 100 | > 100 | > 100 | > 100
FC(F)(F)c1cc(N(C2c3ccccc3C=Cc3ccccc32)P(Cl)Cl)cc(C(F)(F)F)c1 | 23 | 81.6 | > 100 | 42.7 | 50 | 54.4 | 31.1 | 33.8 | 46.9 | 82.6 | 33.4
Cc1cc(S(=O)(=O)Nc2nc3ncccc3[nH]2)c(S)cc1Cl | > 100 | > 100 | > 100 | > 100 | > 100 | > 100 | > 100 | > 100 | > 100 | > 100 | 
NNC(=O)Nc1nc2ccc(NN)cc2[nH]1 | 84.1 | 32.4 | > 100 | 42.1 | 82.5 | 32.3 | > 100 | > 100 | 43.2 | 67.4 | > 100
